Test results reported in publication PMC5218480 (PLoS ONE, 2017).

System: MV-4-11 cells
Experiment: Gene expression microarray analysis (Affymetrix PrimeView) and GSEA
Format: cell-based, human
Parameters: RFU PODN (11730768_x_at) / Fold change /veh PODN (11730768_x_at) / RFU LINC00158 (11744669_a_at) / Fold change /veh LINC00158 (11744669_a_at) / RFU DUSP10 (11751237_a_at) / Fold change /veh DUSP10 (11751237_a_at) / RFU ID3 (11757404_x_at) / Fold change /veh ID3 (11757404_x_at) / RFU PLEKHG5 (11737974_s_at) / Fold change /veh PLEKHG5 (11737974_s_at) / RFU LRRC4B (11730491_at) / Fold change /veh LRRC4B (11730491_at) / RFU GIMAP4 (11747438_a_at) / Fold change /veh GIMAP4 (11747438_a_at) / RFU KRT8 (11758183_x_at) / Fold change /veh KRT8 (11758183_x_at) / RFU CNN1 (11734310_a_at) / Fold change /veh CNN1 (11734310_a_at) / RFU VPS37D (11726825_at) / Fold change /veh VPS37D (11726825_at) / RFU C10orf10 (11716522_x_at) / Fold change /veh C10orf10 (11716522_x_at) / RFU KIR2DL2 /// KIR2DL4 /// KIR2DL5A /// KIR2DL5B /// KIR2DS1 /// KIR2DS2 /// KIR2DS3 /// KIR2DS4 /// KIR3DL3 /// KIR3DL3 /// KIR3DS1 (11738374_at) / Fold change /veh KIR2DL2 /// KIR2DL4 /// KIR2DL5A /// KIR2DL5B /// KIR2DS1 /// KIR2DS2 /// KIR2DS3 /// KIR2DS4 /// KIR3DL3 /// KIR3DL3 /// KIR3DS1 (11738374_at) / RFU C1QL1 (11718748_at) / Fold change /veh C1QL1 (11718748_at) / RFU TMPRSS4 (11747572_a_at) / Fold change /veh TMPRSS4 (11747572_a_at) / RFU HAMP (11756126_x_at) / Fold change /veh HAMP (11756126_x_at) / RFU RNFT2 (11725882_a_at) / Fold change /veh RNFT2 (11725882_a_at) / RFU NR4A2 (11747474_a_at) / Fold change /veh NR4A2 (11747474_a_at) / RFU ABCC12 (11746883_a_at) / Fold change /veh ABCC12 (11746883_a_at) / RFU TMEM136 (11760407_x_at) / Fold change /veh TMEM136 (11760407_x_at) / RFU CLDN22 /// WWC2 (11732394_at) / Fold change /veh CLDN22 /// WWC2 (11732394_at) / RFU HLA-DPB1 (11760878_x_at) / Fold change /veh HLA-DPB1 (11760878_x_at) / RFU SPINT1 (11716480_a_at) / Fold change /veh SPINT1 (11716480_a_at) / RFU GAP43 (11754022_s_at) / Fold change /veh GAP43 (11754022_s_at) / RFU A4GNT (11735810_at) / Fold change /veh A4GNT (11735810_at) / RFU PRB3 (11715151_x_at) / Fold change /veh PRB3 (11715151_x_at) / RFU TUBB4B (11761932_at) / Fold change /veh TUBB4B (11761932_at) / RFU CAPN14 (11732068_a_at) / Fold change /veh CAPN14 (11732068_a_at) / RFU TMCC2 (11721928_a_at) / Fold change /veh TMCC2 (11721928_a_at) / RFU IRGQ (11745062_a_at) / Fold change /veh IRGQ (11745062_a_at) / RFU FAM174B (11720279_a_at) / Fold change /veh FAM174B (11720279_a_at) / RFU TMPRSS4 (11748680_a_at) / Fold change /veh TMPRSS4 (11748680_a_at) / RFU FAM212B (11763350_a_at) / Fold change /veh FAM212B (11763350_a_at) / RFU PLEKHG5 (11743358_a_at) / Fold change /veh PLEKHG5 (11743358_a_at) / RFU ZSCAN30 (11745921_a_at) / Fold change /veh ZSCAN30 (11745921_a_at) / RFU CMKLR1 (11741424_a_at) / Fold change /veh CMKLR1 (11741424_a_at) / RFU LOC101060620 /// MAPK8IP1 (11723275_at) / Fold change /veh LOC101060620 /// MAPK8IP1 (11723275_at) / RFU SPTSSB (11747773_x_at) / Fold change /veh SPTSSB (11747773_x_at) / RFU PRSS12 (11739890_at) / Fold change /veh PRSS12 (11739890_at) / RFU BIN1 (11741810_x_at) / Fold change /veh BIN1 (11741810_x_at) / RFU WNT11 (11732464_a_at) / Fold change /veh WNT11 (11732464_a_at) / RFU C10orf10 (11716521_a_at) / Fold change /veh C10orf10 (11716521_a_at) / RFU C5orf56 (11738089_at) / Fold change /veh C5orf56 (11738089_at) / RFU CYB561 (11721691_x_at) / Fold change /veh CYB561 (11721691_x_at) / RFU ANKRD19P (11752326_a_at) / Fold change /veh ANKRD19P (11752326_a_at) / RFU OR2T12 /// OR2T33 /// OR2T8 (11738714_s_at) / Fold change /veh OR2T12 /// OR2T33 /// OR2T8 (11738714_s_at) / RFU VCAN (11748164_a_at) / Fold change /veh VCAN (11748164_a_at) / RFU JSRP1 (11732532_at) / Fold change /veh JSRP1 (11732532_at) / RFU KRTAP10-11 (11738290_x_at) / Fold change /veh KRTAP10-11 (11738290_x_at) / RFU MYO3A (11730013_a_at) / Fold change /veh MYO3A (11730013_a_at) / RFU EBF3 (11725865_a_at) / Fold change /veh EBF3 (11725865_a_at) / RFU CAMK2N1 (11719241_x_at) / Fold change /veh CAMK2N1 (11719241_x_at) / RFU C5orf56 (11738088_a_at) / Fold change /veh C5orf56 (11738088_a_at) / RFU OLFML3 (11715873_a_at) / Fold change /veh OLFML3 (11715873_a_at) / RFU LOC100653217 /// NTM (11731650_a_at) / Fold change /veh LOC100653217 /// NTM (11731650_a_at) / RFU MAPK11 (11762145_a_at) / Fold change /veh MAPK11 (11762145_a_at) / RFU FIZ1 (11724087_x_at) / Fold change /veh FIZ1 (11724087_x_at) / RFU OASL (11726364_x_at) / Fold change /veh OASL (11726364_x_at) / RFU SOX15 (11748057_x_at) / Fold change /veh SOX15 (11748057_x_at) / RFU CD79A (11719716_a_at) / Fold change /veh CD79A (11719716_a_at) / RFU HIST1H1D (11736915_at) / Fold change /veh HIST1H1D (11736915_at) / RFU CASKIN2 (11723855_a_at) / Fold change /veh CASKIN2 (11723855_a_at) / RFU LOC730098 (11760151_x_at) / Fold change /veh LOC730098 (11760151_x_at) / RFU OR4N2 (11742367_at) / Fold change /veh OR4N2 (11742367_at) / RFU PRRT2 (11749266_a_at) / Fold change /veh PRRT2 (11749266_a_at) / RFU SNX32 (11753110_a_at) / Fold change /veh SNX32 (11753110_a_at) / RFU CDHR5 (11726645_a_at) / Fold change /veh CDHR5 (11726645_a_at) / RFU RCAN1 (11760418_a_at) / Fold change /veh RCAN1 (11760418_a_at) / RFU FAM167A (11723789_a_at) / Fold change /veh FAM167A (11723789_a_at) / RFU FAM26E (11764081_at) / Fold change /veh FAM26E (11764081_at) / RFU ISYNA1 (11749810_s_at) / Fold change /veh ISYNA1 (11749810_s_at) / RFU ACY1 (11761880_at) / Fold change /veh ACY1 (11761880_at) / RFU 11764098_at / Fold change /veh 11764098_at / RFU SAMD14 (11745864_x_at) / Fold change /veh SAMD14 (11745864_x_at) / RFU NPB (11741838_a_at) / Fold change /veh NPB (11741838_a_at) / RFU TMPRSS6 (11731388_a_at) / Fold change /veh TMPRSS6 (11731388_a_at) / RFU KRTAP10-2 (11738614_at) / Fold change /veh KRTAP10-2 (11738614_at) / RFU ARHGAP8 /// PRR5-ARHGAP8 (11727945_x_at) / Fold change /veh ARHGAP8 /// PRR5-ARHGAP8 (11727945_x_at) / RFU KRTAP5-7 /// NADSYN1 (11734609_at) / Fold change /veh KRTAP5-7 /// NADSYN1 (11734609_at) / RFU RASL12 (11751679_a_at) / Fold change /veh RASL12 (11751679_a_at) / RFU CDKN2B (11736163_a_at) / Fold change /veh CDKN2B (11736163_a_at) / RFU PRF1 (11729649_at) / Fold change /veh PRF1 (11729649_at) / RFU, ZNF638 /// ZNF638-IT1 / Fold change vs veh, ZNF638 /// ZNF638-IT1 / RFU, PANK3 / Fold change vs veh, PANK3 / RFU, SH3YL1 / Fold change vs veh, SH3YL1 / RFU, ZEB2 / Fold change vs veh, ZEB2 / RFU, NRIP1 / Fold change vs veh, NRIP1 / RFU, PTTG1IP / Fold change vs veh, PTTG1IP / RFU, CAPN2 / Fold change vs veh, CAPN2 / RFU, MED14 / Fold change vs veh, MED14 / RFU, SNORA58 / Fold change vs veh, SNORA58 / RFU, C1orf63 / Fold change vs veh, C1orf63 / RFU, LRRFIP1 / Fold change vs veh, LRRFIP1 / RFU, NDUFAF7 / Fold change vs veh, NDUFAF7 / RFU, SLC12A2 / Fold change vs veh, SLC12A2 / RFU, IBTK / Fold change vs veh, IBTK / RFU, ESF1 / Fold change vs veh, ESF1 / Fold change vs veh, TMEM50B / RFU, TAOK1 / Fold change vs veh, TAOK1 / RFU, ACBD3 / Fold change vs veh, ACBD3 / RFU, TMA16 / Fold change vs veh, TMA16 / RFU, RWDD3 / Fold change vs veh, RWDD3 / RFU, BCAT1 / Fold change vs veh, BCAT1 / RFU, EDEM3 / Fold change vs veh, EDEM3 / RFU, TMEM33 / Fold change vs veh, TMEM33 / RFU, WDR75 / Fold change vs veh, WDR75 / RFU, AHCTF1 / Fold change vs veh, AHCTF1 / RFU, TFRC / Fold change vs veh, TFRC / RFU, ZDHHC17 / Fold change vs veh, ZDHHC17 / RFU, NOM1 / Fold change vs veh, NOM1 / RFU, ARL8B / Fold change vs veh, ARL8B / RFU, ZBTB11 / Fold change vs veh, ZBTB11 / RFU, TAMM41 / Fold change vs veh, TAMM41 / RFU, KIAA1704 /// LOC100996395 / Fold change vs veh, KIAA1704 /// LOC100996395 / RFU, ING1 / Fold change vs veh, ING1 / RFU, TRMT61B / Fold change vs veh, TRMT61B / RFU, FUBP3 / Fold change vs veh, FUBP3 / RFU, TP53 / Fold change vs veh, TP53 / RFU, TNKS2 / Fold change vs veh, TNKS2 / RFU, ZFP14 / Fold change vs veh, ZFP14 / RFU, ACTR2 / Fold change vs veh, ACTR2 / RFU, PPP3R1 / Fold change vs veh, PPP3R1 / RFU, PIK3R1 / Fold change vs veh, PIK3R1 / RFU, HNRNPA1 / Fold change vs veh, HNRNPA1 / RFU, RNF170 / Fold change vs veh, RNF170 / RFU, ZNF28 / Fold change vs veh, ZNF28 / RFU, RNGTT / Fold change vs veh, RNGTT / RFU, OGT / Fold change vs veh, OGT / RFU, BRD1 / Fold change vs veh, BRD1 / RFU, MARS / Fold change vs veh, MARS / RFU, ZNF655 / Fold change vs veh, ZNF655 / RFU, FAHD1 / Fold change vs veh, FAHD1 / RFU, BDP1 / Fold change vs veh, BDP1 / RFU, LRRCC1 / Fold change vs veh, LRRCC1 / RFU, ARID1A / Fold change vs veh, ARID1A / RFU, ZNF146 / Fold change vs veh, ZNF146 / RFU, ZNF330 / Fold change vs veh, ZNF330 / RFU, GPN3 / Fold change vs veh, GPN3 / RFU, C9orf123 / Fold change vs veh, C9orf123 / RFU, N4BP2L2 / Fold change vs veh, N4BP2L2 / RFU, ARFIP1 / Fold change vs veh, ARFIP1 / RFU, FAM179B / Fold change vs veh, FAM179B / RFU, BCL10 / Fold change vs veh, BCL10 / RFU, UHRF1BP1L / Fold change vs veh, UHRF1BP1L / RFU, BET1 / Fold change vs veh, BET1 / RFU, CNOT2 / Fold change vs veh, CNOT2 / RFU, ZNF268 / Fold change vs veh, ZNF268 / Fold change vs veh, ZNF507 / RFU, DGCR2 / Fold change vs veh, DGCR2 / RFU, WDSUB1 / Fold change vs veh, WDSUB1 / Fold change vs veh, HSP90B1 /// MIR3652 / RFU, ADSS / Fold change vs veh, ADSS / RFU, GK / Fold change vs veh, GK / RFU, ZNF148 / Fold change vs veh, ZNF148 / RFU, TAF9 / Fold change vs veh, TAF9 / RFU, SLC1A5 / Fold change vs veh, SLC1A5 / RFU, SLMO2 / Fold change vs veh, SLMO2 / RFU, ABCC4 / Fold change vs veh, ABCC4 / RFU, LOC101060439 /// RAP1B / Fold change vs veh, LOC101060439 /// RAP1B / RFU, RFX7 / Fold change vs veh, RFX7 / RFU, GTPBP10 / Fold change vs veh, GTPBP10 / RFU, CNEP1R1 / Fold change vs veh, CNEP1R1 / RFU, BIVM-ERCC5 /// ERCC5 / Fold change vs veh, BIVM-ERCC5 /// ERCC5 / RFU, ILF3 / Fold change vs veh, ILF3 / RFU 11762660_at / Fold change /veh 11762660_at / RFU VCAN (11757783_s_at) / Fold change /veh VCAN (11757783_s_at) / RFU DDX43 (11728927_at) / Fold change /veh DDX43 (11728927_at) / RFU KRT8 (11758188_x_at) / Fold change /veh KRT8 (11758188_x_at) / RFU NKD1 (11759106_at) / Fold change /veh NKD1 (11759106_at) / RFU SRD5A1 (11742802_a_at) / Fold change /veh SRD5A1 (11742802_a_at) / RFU TPSAB1 /// TPSB2 (11721975_s_at) / Fold change /veh TPSAB1 /// TPSB2 (11721975_s_at) / RFU GSTM3 (11746129_a_at) / Fold change /veh GSTM3 (11746129_a_at) / RFU IL23R (11737362_x_at) / Fold change /veh IL23R (11737362_x_at) / RFU TMEM51 (11727254_a_at) / Fold change /veh TMEM51 (11727254_a_at) / RFU PIWIL2 (11732686_x_at) / Fold change /veh PIWIL2 (11732686_x_at) / RFU ORM1 (11744905_x_at) / Fold change /veh ORM1 (11744905_x_at) / RFU CCDC152 (11743942_at) / Fold change /veh CCDC152 (11743942_at) / RFU ECM1 (11717891_a_at) / Fold change /veh ECM1 (11717891_a_at) / RFU IL23R (11748794_a_at) / Fold change /veh IL23R (11748794_a_at) / RFU TNFAIP8L3 (11732012_x_at) / Fold change /veh TNFAIP8L3 (11732012_x_at) / RFU MBOAT4 (11741988_at) / Fold change /veh MBOAT4 (11741988_at) / RFU 11764193_at / Fold change /veh 11764193_at / RFU TMEM53 (11763286_at) / Fold change /veh TMEM53 (11763286_at) / RFU MAGEB2 (11727129_at) / Fold change /veh MAGEB2 (11727129_at) / RFU TMEM200A (11744735_a_at) / Fold change /veh TMEM200A (11744735_a_at) / RFU CCDC152 (11751479_a_at) / Fold change /veh CCDC152 (11751479_a_at) / RFU FAM211A (11726209_a_at) / Fold change /veh FAM211A (11726209_a_at) / RFU RGS16 (11746705_a_at) / Fold change /veh RGS16 (11746705_a_at) / RFU VCAN (11755009_s_at) / Fold change /veh VCAN (11755009_s_at) / RFU RHOB (11743442_s_at) / Fold change /veh RHOB (11743442_s_at) / RFU RGS16 (11720943_a_at) / Fold change /veh RGS16 (11720943_a_at) / RFU RGS16 (11720944_at) / Fold change /veh RGS16 (11720944_at) / RFU, VPS4B / Fold change vs veh, VPS4B / RFU, CREB1 / Fold change vs veh, CREB1 / RFU, DNAJC13 / Fold change vs veh, DNAJC13 / RFU, GNAQ / Fold change vs veh, GNAQ / RFU, CDK5R1 / Fold change vs veh, CDK5R1 / RFU, ZRANB3 / Fold change vs veh, ZRANB3 / RFU, CUL4A / Fold change vs veh, CUL4A / RFU, CCNY / Fold change vs veh, CCNY / RFU, UFL1 / Fold change vs veh, UFL1 / RFU, COG3 / Fold change vs veh, COG3 / RFU, DIAPH2 / Fold change vs veh, DIAPH2 / RFU, SKA2 / Fold change vs veh, SKA2 / RFU, AFF3 / Fold change vs veh, AFF3 / RFU, LMF1 / Fold change vs veh, LMF1 / RFU, IPO11 / Fold change vs veh, IPO11 / RFU, DFFB / Fold change vs veh, DFFB / RFU, FOXP1 / Fold change vs veh, FOXP1 / RFU, CARD8 / Fold change vs veh, CARD8 / RFU, STRN3 / Fold change vs veh, STRN3 / RFU, ADK / Fold change vs veh, ADK / RFU, RASSF2 / Fold change vs veh, RASSF2 / RFU, WIPF1 / Fold change vs veh, WIPF1 / RFU, LARP1B / Fold change vs veh, LARP1B / RFU, RASA1 / Fold change vs veh, RASA1 / RFU, RB1 / Fold change vs veh, RB1 / RFU, PPFIA1 / Fold change vs veh, PPFIA1 / RFU, MAT2A / Fold change vs veh, MAT2A / RFU, CCT5 / Fold change vs veh, CCT5 / RFU, WDR92 / Fold change vs veh, WDR92 / RFU, CUX1 / Fold change vs veh, CUX1 / RFU, TTC7A / Fold change vs veh, TTC7A / RFU, TMEM135 / Fold change vs veh, TMEM135 / RFU, DEPTOR / Fold change vs veh, DEPTOR / RFU, CPM / Fold change vs veh, CPM / RFU, DNAJB6 / Fold change vs veh, DNAJB6 / RFU, CACNA2D3 / Fold change vs veh, CACNA2D3 / RFU, DTX4 / Fold change vs veh, DTX4 / RFU, TFCP2 / Fold change vs veh, TFCP2 / RFU, GMCL1 /// GMCL1P1 / Fold change vs veh, GMCL1 /// GMCL1P1 / RFU, AEBP2 / Fold change vs veh, AEBP2 / RFU, SNHG1 /// SNORD22 /// SNORD25 /// SNORD26 /// SNORD27 /// SNORD28 /// SNORD29 /// SNORD31 / Fold change vs veh, SNHG1 /// SNORD22 /// SNORD25 /// SNORD26 /// SNORD27 /// SNORD28 /// SNORD29 /// SNORD31 / Fold change (Aza/veh), C12orf56 (ProbeSet 11735607_a_at) / Fold change (ACY-1035/veh), C12orf56 (ProbeSet 11735607_a_at) / Fold change (Aza/veh), FGFR1OP (ProbeSet 11751329_s_at) / Fold change (ACY-1035/veh), FGFR1OP (ProbeSet 11751329_s_at) / Fold change (Aza/veh), VPS36 (ProbeSet 11739960_a_at) / Fold change (ACY-1035/veh), VPS36 (ProbeSet 11739960_a_at) / RFU SYPL1 (11715823_x_at) / Fold change /veh SYPL1 (11715823_x_at) / RFU IGFBP7 (11715501_s_at) / Fold change /veh IGFBP7 (11715501_s_at) / RFU REEP3 (11722064_at) / Fold change /veh REEP3 (11722064_at) / RFU IGLL1 (11728026_x_at) / Fold change /veh IGLL1 (11728026_x_at): dose or concentration left out as unconfirmed
Details: ProbeSet 11731461_x_at; LIST D

## Nc1ccc(-c2cccs2)cc1NC(=O)c1ccc2c(c1)cc(C1CC1)n2CCN1CCOCC1 [ACY-1035]
  Fold change vs veh, CPM: 0.83
